Assay results reported in article PMC9127364, “2-Aminoacrylate stress damages diverse PLP-dependent enzymes in vivo” (The Journal of Biological Chemistry, 2022).

Key:
[1] = target: T1, IlvE (Salmonella enterica, UniProt P0A1A5); test: pyruvate-PLP adduct released by base from the purified protein, HPLC; format: cell-based; settings: covalent; 2AA formed in vivo, ridA host, 5 mM L-serine; attacks active-site PLP
T1 construct: pET28b plasmid, purified on HisTrap (His-tagged); expressed in S. enterica DM13509 (wild type) and DM17050 (ridA)
T1 sequence (P0A1A5 2-309): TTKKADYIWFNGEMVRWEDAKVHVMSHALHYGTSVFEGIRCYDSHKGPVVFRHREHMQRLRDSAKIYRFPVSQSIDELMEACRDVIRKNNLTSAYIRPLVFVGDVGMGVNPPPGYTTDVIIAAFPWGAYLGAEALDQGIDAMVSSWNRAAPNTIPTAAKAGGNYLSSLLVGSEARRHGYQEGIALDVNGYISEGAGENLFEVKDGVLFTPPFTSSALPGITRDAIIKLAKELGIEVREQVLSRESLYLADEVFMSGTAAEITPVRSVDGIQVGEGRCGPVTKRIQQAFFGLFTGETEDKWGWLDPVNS

[2] = target: T2, Alr (Salmonella enterica, UniProt P0A1A3); test: as above; format: cell-based; settings: covalent; 2AA formed in vivo, ridA host, 5 mM L-serine; attacks active-site PLP
T2 construct: pET20b derivative pDM1602, N-terminal His6 tag; expressed in and purified from S. enterica DM13509 (wild type) and DM17050 (ridA)
T2 sequence (P0A1A3 whole entry): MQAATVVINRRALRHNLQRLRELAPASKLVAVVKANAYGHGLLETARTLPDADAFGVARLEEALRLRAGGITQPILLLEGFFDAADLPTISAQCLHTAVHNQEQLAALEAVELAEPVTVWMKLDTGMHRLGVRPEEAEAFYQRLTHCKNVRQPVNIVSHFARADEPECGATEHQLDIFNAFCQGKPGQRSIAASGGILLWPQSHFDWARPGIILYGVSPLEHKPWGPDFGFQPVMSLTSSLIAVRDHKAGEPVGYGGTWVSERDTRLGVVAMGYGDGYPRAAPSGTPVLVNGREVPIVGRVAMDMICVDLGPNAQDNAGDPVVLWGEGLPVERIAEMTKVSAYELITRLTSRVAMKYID
Excerpt: pyruvate-PLP adduct released by base from the purified protein, HPLC on Alr

[3] = target: T3, IlvA (Salmonella enterica, UniProt P20506); test: as above; format: cell-based; settings: covalent; 2AA formed in vivo, ridA host, 5 mM L-serine; attacks active-site PLP
T3 construct: pET20b derivative pDM1578, N-terminal His6 tag; expressed in S. enterica DM13509 (wild type) and DM17050 (ridA)
T3 sequence (P20506 1-514): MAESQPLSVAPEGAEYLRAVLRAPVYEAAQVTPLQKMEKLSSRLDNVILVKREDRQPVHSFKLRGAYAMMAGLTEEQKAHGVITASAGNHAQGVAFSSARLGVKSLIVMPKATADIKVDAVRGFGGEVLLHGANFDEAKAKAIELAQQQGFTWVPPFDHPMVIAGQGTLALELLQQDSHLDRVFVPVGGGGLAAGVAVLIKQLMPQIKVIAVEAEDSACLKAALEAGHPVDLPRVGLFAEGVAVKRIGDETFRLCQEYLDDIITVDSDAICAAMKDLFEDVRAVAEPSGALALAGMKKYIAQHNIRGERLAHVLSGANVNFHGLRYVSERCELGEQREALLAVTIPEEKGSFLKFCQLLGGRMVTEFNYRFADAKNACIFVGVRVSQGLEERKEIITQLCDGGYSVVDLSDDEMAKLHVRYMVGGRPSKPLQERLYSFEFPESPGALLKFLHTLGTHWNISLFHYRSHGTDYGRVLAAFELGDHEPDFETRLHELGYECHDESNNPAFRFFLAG
Excerpt: pyruvate-PLP adduct released by base from the purified protein, HPLC on IlvA

[4] = target: T2, Alr; test: incubation with purified protein, base release of cofactors, HPLC; format: binding; settings: covalent; suicide inhibitor, forms pyruvate-PLP in the active site; protein from ridA+ host
[5] = target: T1, IlvE; test: base release of bound cofactor, HPLC at […] nm; format: binding; settings: protein from wild-type (ridA+) host; 30 mM KOH release; storage buffer with 10 μM PLP
[6] = target: T2, Alr; test: base release of bound cofactor, HPLC at […] nm; format: binding; settings: protein from wild-type (ridA+) host; 30 mM KOH release; storage buffer with 10 μM PLP
[7] = target: T3, IlvA; test: base release of bound cofactor, HPLC at […] nm; format: binding; settings: protein from wild-type (ridA+) host; 30 mM KOH release; storage buffer with 10 μM PLP
[8] = target: T1, IlvE; test: base release of bound cofactor, HPLC at […] nm; format: binding; settings: protein from wild-type (ridA+) host; 30 mM KOH release; storage buffer with 10 μM PLP; remark: listed apart in the source

SMILES: C=C(N)C(=O)O [2AA]
- Pyruvate-PLP [1]: 0.72 ± <0.01
- Pyruvate-PLP [2]: 0.11 ± <0.01
- Pyruvate-PLP [3]: 0.03 ± <0.01

SMILES: NC(CCl)C(=O)O (centres unmarked) [3CA]
- incubation with purified protein, base release of cofactors, HPLC [4]: Alr but not IlvA is sensitive to 3-chloroalanine (3CA).

SMILES: Cc1ncc(COP(=O)(O)O)c(C=O)c1O [PLP]
- PLP [5]: 0.30 ± <0.01
- PLP [6]: 0.87 ± <0.01
- PLP [7]: 1.25 ± 0.04 nmol/nmol protein

SMILES: Cc1ncc(COP(=O)(O)O)c(CN)c1O [PMP]
- PMP [8]: 0.33 ± <0.01
